# Results reported in ChEMBL document CHEMBL1201862, “PubChem BioAssay data set” (2004).
#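 Following 48 hours of exposure in 96-well plates, responses at five concentrations were used to interpolate endpoints linearly. The concentration for 50% growth inhibition is given as GI50.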 Calls of active or inactive are those of the source. Cut-off read from the data, not from the text of the source: active = GI50 up to about 1.1 µM and inactive = higher.
# Tests used:
# Experiment in all cases: growth of human tumour cells (NCI), 48 h
# [1] = tested on: 786-0
# [2] = tested on: A498
# [3] = tested on: A549
# [4] = tested on: ACHN
# [5] = tested on: CAKI-1
# [6] = tested on: CCRF-CEM
# [7] = tested on: COLO 205
# [8] = tested on: DU-145
# [9] = tested on: EKVX
# [10] = tested on: HCC 2998
# [11] = tested on: HCT-116
# [12] = tested on: HCT-15
# [13] = tested on: HL-60
# [14] = tested on: HOP-62
# [15] = tested on: HOP-92
# [16] = tested on: HT-29
# [17] = tested on: Hs-578T
# [18] = tested on: IGROV-1
# [19] = tested on: K562
# [20] = tested on: KM12
# [21] = tested on: LOX IMVI
# [22] = tested on: M14
# [23] = tested on: MCF7
# [24] = tested on: MDA-MB-231
# [25] = tested on: MDA-MB-435
# [26] = tested on: MDA-N
# [27] = tested on: MOLT-4
# [28] = tested on: Malme-3M
# [29] = tested on: NCI-H226
# [30] = tested on: NCI-H23
# [31] = tested on: NCI-H460
# [32] = tested on: NCI-H522
# [33] = tested on: NCI/ADR-RES
# [34] = tested on: OVCAR-3
# [35] = tested on: OVCAR-4
# [36] = tested on: OVCAR-5
# [37] = tested on: OVCAR-8
# [38] = tested on: PC-3
# [39] = tested on: RPMI-8226
# [40] = tested on: RXF 393
# [41] = tested on: SF-268
# [42] = tested on: SF-295
# [43] = tested on: SF-539
# [44] = tested on: SK-MEL-28
# [45] = tested on: SK-MEL-2
# [46] = tested on: SK-MEL-5
# [47] = tested on: SK-OV-3
# [48] = tested on: SN12C
# [49] = tested on: SNB-19
# [50] = tested on: SNB-75
# [51] = tested on: SR
# [52] = tested on: SW-620
# [53] = tested on: T47D
# [54] = tested on: TK-10
# [55] = tested on: U-251
# [56] = tested on: UACC-257
# [57] = tested on: UACC-62
# [58] = tested on: BT-549
# [59] = tested on: UO-31
compound,measurement,setting,value
Cc1nc(SCC(N)=O)c2sc(=S)n(-c3ccccc3)c2n1,GI50,[1],> 10 µM (inactive)
same,GI50,[2],> 10 µM (inactive)
same,GI50,[3],> 10 µM (inactive)
same,GI50,[4],> 10 µM (inactive)
same,GI50,[5],> 10 µM (inactive)
same,GI50,[6],> 10 µM (inactive)
same,GI50,[7],> 10 µM (inactive)
same,GI50,[8],> 10 µM (inactive)
same,GI50,[9],> 10 µM (inactive)
same,GI50,[10],> 10 µM (inactive)
same,GI50,[11],> 10 µM (inactive)
same,GI50,[12],> 10 µM
same,GI50,[13],> 10 µM (inactive)
same,GI50,[14],> 10 µM (inactive)
same,GI50,[15],> 10 µM (inactive)
same,GI50,[16],> 10 µM (inactive)
same,GI50,[17],> 10 µM (inactive)
same,GI50,[18],> 10 µM (inactive)
same,GI50,[19],> 10 µM (inactive)
same,GI50,[20],> 10 µM (inactive)
same,GI50,[21],> 10 µM (inactive)
same,GI50,[22],> 10 µM (inactive)
same,GI50,[23],> 10 µM (inactive)
same,GI50,[24],> 10 µM (inactive)
same,GI50,[25],> 10 µM (inactive)
same,GI50,[26],> 10 µM (inactive)
same,GI50,[27],> 10 µM (inactive)
same,GI50,[28],> 10 µM (inactive)
same,GI50,[29],> 10 µM (inactive)
same,GI50,[30],> 10 µM (inactive)
same,GI50,[31],> 10 µM (inactive)
same,GI50,[32],> 10 µM (inactive)
same,GI50,[33],> 10 µM (inactive)
same,GI50,[34],> 10 µM (inactive)
same,GI50,[35],> 10 µM (inactive)
same,GI50,[36],> 10 µM (inactive)
same,GI50,[37],> 10 µM (inactive)
same,GI50,[38],> 10 µM (inactive)
same,GI50,[39],> 10 µM (inactive)
same,GI50,[40],> 10 µM (inactive)
same,GI50,[41],> 10 µM (inactive)
same,GI50,[42],> 10 µM (inactive)
same,GI50,[43],> 10 µM (inactive)
same,GI50,[44],> 10 µM (inactive)
same,GI50,[45],> 10 µM (inactive)
same,GI50,[46],> 10 µM (inactive)
same,GI50,[47],> 10 µM (inactive)
same,GI50,[48],> 10 µM (inactive)
same,GI50,[49],> 10 µM (inactive)
same,GI50,[50],> 10 µM (inactive)
same,GI50,[51],> 10 µM (inactive)
same,GI50,[52],> 10 µM (inactive)
same,GI50,[53],> 10 µM (inactive)
same,GI50,[54],> 10 µM (inactive)
same,GI50,[55],> 10 µM (inactive)
same,GI50,[56],> 10 µM (inactive)
same,GI50,[57],> 10 µM (inactive)
CCN(CCCN(CC)C(=O)Nc1ccccc1)C(=O)Nc1ccccc1,GI50,[1],> 100 µM (inactive)
same,GI50,[3],> 100 µM (inactive)
same,GI50,[4],> 100 µM (inactive)
same,GI50,[58],> 100 µM (inactive)
same,GI50,[5],> 100 µM (inactive)
same,GI50,[6],> 100 µM (inactive)
same,GI50,[7],> 100 µM (inactive)
same,GI50,[8],> 100 µM (inactive)
same,GI50,[9],> 100 µM (inactive)
same,GI50,[10],> 100 µM (inactive)
same,GI50,[11],> 100 µM (inactive)
same,GI50,[12],> 100 µM
same,GI50,[13],> 100 µM (inactive)
same,GI50,[14],> 100 µM (inactive)
same,GI50,[15],> 100 µM (inactive)
same,GI50,[16],> 100 µM (inactive)
same,GI50,[18],> 100 µM (inactive)
same,GI50,[19],> 100 µM (inactive)
same,GI50,[20],> 100 µM (inactive)
same,GI50,[21],> 100 µM (inactive)
same,GI50,[22],> 100 µM (inactive)
same,GI50,[23],> 100 µM (inactive)
same,GI50,[24],> 100 µM (inactive)
same,GI50,[25],> 100 µM (inactive)
same,GI50,[26],> 100 µM (inactive)
same,GI50,[27],> 100 µM (inactive)
same,GI50,[28],66.1 µM (inactive)
same,GI50,[29],> 100 µM (inactive)
same,GI50,[30],> 100 µM (inactive)
same,GI50,[31],> 100 µM (inactive)
same,GI50,[32],> 100 µM (inactive)
same,GI50,[33],> 100 µM (inactive)
same,GI50,[34],> 100 µM (inactive)
same,GI50,[35],> 100 µM (inactive)
same,GI50,[36],> 100 µM (inactive)
same,GI50,[37],> 100 µM (inactive)
same,GI50,[38],> 100 µM (inactive)
same,GI50,[39],> 100 µM (inactive)
same,GI50,[40],> 100 µM (inactive)
same,GI50,[42],> 100 µM (inactive)
same,GI50,[43],> 100 µM (inactive)
same,GI50,[44],> 100 µM (inactive)
same,GI50,[45],> 100 µM (inactive)
same,GI50,[46],> 100 µM (inactive)
same,GI50,[47],> 100 µM (inactive)
same,GI50,[48],> 100 µM (inactive)
same,GI50,[49],> 100 µM (inactive)
same,GI50,[50],> 100 µM (inactive)
same,GI50,[51],> 100 µM (inactive)
same,GI50,[52],> 100 µM (inactive)
same,GI50,[53],> 100 µM (inactive)
same,GI50,[54],> 100 µM (inactive)
same,GI50,[55],> 100 µM (inactive)
same,GI50,[56],> 100 µM (inactive)
same,GI50,[57],> 100 µM (inactive)
same,GI50,[59],> 100 µM (inactive)
